{"source": "patent US9045505B2", "about": "“Nitric oxide donors” (University of Otago, priority 2006, dated 2015)", "key": {"HeLa cells": {"system": "HeLa cells", "assay": "Cell hypoxia experiment, extracellular pO2 by fluorescence quenching oximetry", "format": "cell-based", "details": "1% O2, 30 min incubation, compared to untreated controls", "method": "FIG. 10 is a series of traces and graphs showing the effect of MitoSNAP on respiration in cells. (a-d) Jurkat cells (55×10^6 cells) were incubated in PBS supplemented with 25 mM Hepes pH 7.2 (NaOH), 1 mM sodium pyruvate, 10 μM neocuproine and 100 μM DTPA in the stirred 2.5 ml chamber of an oxygen electrode at 37° C. with 5 μM MitoSNAP (a), MitoNAP (b), SNAP (c) or MitoSNAP and FCCP (500 nM) (d). Where indicated 5 μM OxyHb was added. Traces show typical experiments that were repeated at least three times. Sections of the 02 electrode trace where OxyHb was added for (a) and (b) have been expanded 4-fold in the vertical dimension to facilitate inspection. […] Cellular pO2 values, measured by fluorescence quenching oximetry and expressed as mean±sd, are shown. […]\nHeLa cells were seeded and grown to 100% confluence with 15 ml medium/dish on 165 cm^2 dishes. […] Extracellular pO2 measurements were taken by fluorescence quenching oximetry (Oxylite-2000; Oxford Optronix). […]\nTo evaluate the selective uptake of MitoSNAP by mitochondria within cells, the effect of MitoSNAP on respiration by Jurkat cells, a T lymphocyte cell line that grows in suspension, was measured using an O2 electrode (FIG. 10). […] Then the effects of a further 30 min incubation with MitoSNAP, MitoNAP or the mitochondrial inhibitor myxathiazol on the steady-state extracellular pO2 was assessed by fluorescence quenching oximetry (FIG. 10e)."}, "[1]": {"system": "liver or heart mitochondria", "assay": "Visualisation of S-nitrosated mitochondrial proteins by Cy3 maleimide labelling", "format": "biochemical, rat", "details": "10 μM MitoSNAP or 500 μM diamide, 5 min", "method": "FIG. 11 is a series of graphs showing S-nitrosation of mitochondrial thiols by MitoSNAP. (a) Time course of S-nitrosation of mitochondrial proteins by MitoSNAP. Liver mitochondria (1 mg protein) were incubated in 1 ml KCl buffer supplemented with rotenone and succinate in the presence of 5 μM MitoSNAP. At various times mitochondria were treated with 10 mM N-ethylmaleimide (NEM), isolated by centrifugation and the S-nitrosothiol content assessed. Data are of a typical experiment showing means±range of duplicate samples for each time point, each measured in duplicate. The experiment was repeated twice. (b) S-nitrosation of mitochondrial proteins by different concentrations of MitoSNAP and SNAP. Aliquots of liver mitochondria were incubated with the indicated concentrations of MitoSNAP or SNAP for […] in the presence or absence of 500 nM FCCP and then assessed for S-nitrosothiol content as in (a). […] Data are of a typical experiment showing means±range of duplicate samples for each time point, each measured in duplicate. […] After further incubation for 5 min at 37° C. in the dark, the medium was removed and the content of S-nitrosated proteins was measured. […] S-nitrosated thiols were then selectively tagged with Cy3 maleimide and protein (10 μg) was then separated on a 12.5% SDS PAGE gel which was stained with coomassie blue and scanned for Cy3 fluorescence. […]"}, "complex I": {"system": "complex I", "assay": "Respiration by bovine heart mitochondrial membranes on NADH or succinate", "format": "biochemical", "details": "75 μM, 5 min", "method": "(a) Effect of MitoSNAP on mitochondrial respiration.\nMitochondrial preparations and incubations."}}}
{"compound": "CC(=O)NC(C(=O)NCCCCC[P+](c1ccccc1)(c1ccccc1)c1ccccc1)C(C)(C)SN=O.CS(=O)(=O)[O-]", "note": "(stereo not shown) [MitoSNAP, [5-(2-acetylamino-3-methyl-3-nitrosothio-butyrylamino)-penty1]-triphenylphosphonium methanesulfonate]", "values": [{"measurement": "effect on steady-state extracellular pO2 during hypoxia", "setting": "HeLa cells", "result": "increased extracellular O2"}, {"measurement": "Cy3 labelling of S-nitrosated proteins", "setting": "[1]", "result": "S-nitrosation of a large number of different proteins"}, {"measurement": "effect on succinate respiration", "setting": "complex I", "result": "unaffected"}, {"measurement": "inhibition of NADH respiration", "setting": "complex I", "result": "about 35%"}]}
